According to PubChem BioAssay (NCI):
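48-hour exposure; five concentrations; linearly interpolated endpoints. TGI: total growth inhibition.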

Tests used:
Experiment in all cases: NCI-60 cell line screen, 48 h
[1] = tested on: DU-145 prostate
[2] = tested on: HCC-2998 colon
[3] = tested on: CCRF-CEM leukemia
[4] = tested on: OVCAR-4 ovarian
[5] = tested on: MDA-MB-231 breast
[6] = tested on: RXF 393 renal
[7] = tested on: A498 renal
[8] = tested on: MDA-MB-435
[9] = tested on: MALME-3M melanoma
[10] = tested on: T-47D breast
[11] = tested on: SW-620 colon
[12] = tested on: NCI-H226 lung
[13] = tested on: LOX IMVI melanoma
[14] = tested on: SF-295 CNS
[15] = tested on: NCI-H522 lung
[16] = tested on: COLO 205 colon
[17] = tested on: MDA-N
[18] = tested on: BT-549 breast
[19] = tested on: CAKI-1 renal
[20] = tested on: HL-60(TB) leukemia
[21] = tested on: SNB-75 CNS
[22] = tested on: ACHN renal
[23] = tested on: RPMI-8226 leukemia
[24] = tested on: SK-MEL-28 melanoma
[25] = tested on: MOLT-4 leukemia
[26] = tested on: PC-3 prostate
[27] = tested on: HS 578T breast
[28] = tested on: HOP-92 NSCLC
[29] = tested on: NCI/ADR-RES ovarian
[30] = tested on: SN12C renal
[31] = tested on: TK-10 renal
[32] = tested on: IGROV1 ovarian
[33] = tested on: A549 NSCLC
[34] = tested on: SNB-19 CNS
[35] = tested on: K-562 leukemia
[36] = tested on: SR leukemia
[37] = tested on: HCT-116 colon
[38] = tested on: HOP-62 NSCLC
[39] = tested on: SF-539 CNS
[40] = tested on: OVCAR-3 ovarian
[41] = tested on: SF-268 CNS
[42] = tested on: EKVX NSCLC
[43] = tested on: NCI-H23 lung
[44] = tested on: UO-31 renal
[45] = tested on: HT29 colon
[46] = tested on: SK-MEL-5 melanoma
[47] = tested on: HCT-15 colon
[48] = tested on: UACC-257 melanoma
[49] = tested on: NCI-H460 lung
[50] = tested on: U251 CNS
[51] = tested on: KM12 colon
[52] = tested on: SK-MEL-2 melanoma
[53] = tested on: OVCAR-8 ovarian
[54] = tested on: M14 melanoma
[55] = tested on: UACC-62 melanoma
[56] = tested on: 786-0 renal
[57] = tested on: OVCAR-5 ovarian
[58] = tested on: SK-OV-3 ovarian
[59] = tested on: MCF7 breast

For `Nc1ncnn2c(C3OC(CO)C(O)C3O)ccc12` (stereo not drawn), which TGI [1] is on record?
The TGI was 0.74 µM.

What about the TGI [2] of the same compound?
Its TGI is 2.71 µM.

What about the TGI [3] of the same compound?
Its TGI is 0.627 µM.

What about the TGI [4] of the same compound?
Its TGI is 0.582 µM.

And the TGI [5]?
The TGI was 1.11 µM.

What about the TGI [6] of the same compound?
Its TGI is 0.667 µM.

And the TGI [7]?
The TGI was 0.539 µM.

And the TGI [8]?
The TGI was 0.376 µM.

What about the TGI [9] of the same compound?
The TGI was 0.285 µM.

And the TGI [10]?
The TGI was 6.93 µM.

What about the TGI [11] of the same compound?
Its TGI is 35.1 µM.

What about the TGI [12] of the same compound?
Its TGI is 0.866 µM.

What about the TGI [13] of the same compound?
The TGI was 0.0463 µM.

And the TGI [14]?
Its TGI is 3.01 µM.

What about the TGI [15] of the same compound?
Its TGI is 1.97 µM.

What about the TGI [16] of the same compound?
Its TGI is 0.762 µM.

And the TGI [17]?
The TGI was 0.693 µM.

What about the TGI [18] of the same compound?
Its TGI is 0.789 µM.

And the TGI [19]?
The TGI was 0.486 µM.

What about the TGI [20] of the same compound?
The TGI was 0.328 µM.

What about the TGI [21] of the same compound?
Its TGI is 0.866 µM.

What about the TGI [22] of the same compound?
The TGI was 0.645 µM.

What about the TGI [23] of the same compound?
Its TGI is 0.467 µM.

And the TGI [24]?
The TGI was 0.592 µM.

And the TGI [25]?
The TGI was 0.455 µM.

What about the TGI [26] of the same compound?
The TGI was 0.762 µM.

And the TGI [27]?
The TGI was 0.275 µM.

What about the TGI [28] of the same compound?
The TGI was 0.431 µM.

What about the TGI [29] of the same compound?
Its TGI is 2.27 µM.

What about the TGI [30] of the same compound?
The TGI was 2.7 µM.

What about the TGI [31] of the same compound?
Its TGI is 0.682 µM.

What about the TGI [32] of the same compound?
The TGI was 0.562 µM.

And the TGI [33]?
The TGI was 3.14 µM.

And the TGI [34]?
The TGI was 25.4 µM.

And the TGI [35]?
The TGI was 0.569 µM.

What about the TGI [36] of the same compound?
The TGI was 0.837 µM.

What about the TGI [37] of the same compound?
Its TGI is 0.151 µM.

And the TGI [38]?
The TGI was 1.48 µM.

What about the TGI [39] of the same compound?
The TGI was 0.403 µM.

And the TGI [40]?
Its TGI is 0.52 µM.

And the TGI [41]?
Its TGI is 1.99 µM.

And the TGI [42]?
The TGI was 4.23 µM.

And the TGI [43]?
The TGI was 0.474 µM.

What about the TGI [44] of the same compound?
Its TGI is 0.494 µM.

And the TGI [45]?
Its TGI is 1.45 µM.

What about the TGI [46] of the same compound?
Its TGI is 0.527 µM.

What about the TGI [47] of the same compound?
The TGI was 0.771 µM.

What about the TGI [48] of the same compound?
The TGI was 0.417 µM.

And the TGI [49]?
Its TGI is 0.918 µM.

What about the TGI [50] of the same compound?
The TGI was 4.14 µM.

And the TGI [51]?
The TGI was 0.677 µM.

And the TGI [52]?
The TGI was 0.362 µM.

And the TGI [53]?
Its TGI is 0.746 µM.

And the TGI [54]?
The TGI was 0.413 µM.

And the TGI [55]?
The TGI was 0.358 µM.

What about the TGI [56] of the same compound?
Its TGI is 0.807 µM.

What about the TGI [57] of the same compound?
Its TGI is 4.54 µM.

Which results are given for `CN(C)CCCSc1nc2ccccc2[nH]1`?
TGI [1]: > 100 µM; TGI [2]: > 100 µM; TGI [4]: > 100 µM; TGI [5]: > 100 µM; TGI [6]: > 100 µM; TGI [7]: > 100 µM; TGI [8]: > 100 µM; TGI [9]: > 100 µM; TGI [10]: > 100 µM; TGI [11]: > 100 µM; TGI [12]: > 100 µM; TGI [13]: > 100 µM; TGI [14]: > 100 µM; TGI [15]: > 100 µM; TGI [16]: > 100 µM; TGI [17]: > 100 µM; TGI [18]: > 100 µM; TGI [19]: > 100 µM; TGI [21]: > 100 µM; TGI [22]: > 100 µM; TGI [23]: > 100 µM; TGI [24]: > 100 µM; TGI [58]: > 100 µM; TGI [27]: > 100 µM; TGI [28]: > 100 µM; TGI [29]: > 100 µM; TGI [30]: > 100 µM; TGI [31]: > 100 µM; TGI [32]: > 100 µM; TGI [33]: > 100 µM; TGI [34]: > 100 µM; TGI [35]: > 100 µM; TGI [36]: > 100 µM; TGI [37]: > 100 µM; TGI [38]: > 100 µM; TGI [40]: > 100 µM; TGI [41]: > 100 µM; TGI [42]: > 100 µM; TGI [43]: > 100 µM; TGI [44]: > 100 µM; TGI [45]: > 100 µM; TGI [46]: > 100 µM; TGI [59]: > 100 µM; TGI [47]: > 100 µM; TGI [48]: > 100 µM; TGI [49]: > 100 µM; TGI [50]: > 100 µM; TGI [51]: > 100 µM; TGI [52]: > 100 µM; TGI [53]: > 100 µM; TGI [54]: > 100 µM; TGI [55]: > 100 µM; TGI [56]: > 100 µM; TGI [57]: > 100 µM

Which results are given for `O=C(ON=C1c2ccccc2C(Br)C(Br)c2ccccc21)c1cc([N+](=O)[O-])cc([N+](=O)[O-])c1` (stereo not drawn)?
TGI [1]: 66 µM; TGI [2]: 68.3 µM; TGI [3]: 3.65 µM; TGI [4]: 48.2 µM; TGI [5]: 35.6 µM; TGI [6]: 36.6 µM; TGI [7]: 33.1 µM; TGI [8]: 35.3 µM; TGI [9]: 33 µM; TGI [10]: 76.7 µM; TGI [11]: 40.5 µM; TGI [12]: 48.6 µM; TGI [13]: 28.8 µM; TGI [14]: > 88.9 µM; TGI [15]: 14.3 µM; TGI [16]: 40 µM; TGI [17]: 48.8 µM; TGI [19]: 47.9 µM; TGI [20]: 0.422 µM; TGI [21]: 30.2 µM; TGI [22]: 45 µM; TGI [23]: 37 µM; TGI [24]: 34.6 µM; TGI [58]: 66.8 µM; TGI [25]: 45.1 µM; TGI [26]: > 73.5 µM; TGI [27]: 61.6 µM; TGI [28]: 39.8 µM; TGI [29]: 40.5 µM; TGI [30]: 35.8 µM; TGI [31]: 45.8 µM; TGI [32]: 26.6 µM; TGI [33]: 75.7 µM; TGI [34]: 56.8 µM; TGI [35]: 45.3 µM; TGI [36]: 26.9 µM; TGI [37]: 32.5 µM; TGI [38]: 34.3 µM; TGI [39]: 32.8 µM; TGI [40]: 35.5 µM; TGI [41]: 35.7 µM; TGI [42]: 59.8 µM; TGI [43]: 40.1 µM; TGI [45]: 37.7 µM; TGI [46]: 30.7 µM; TGI [59]: 48 µM; TGI [47]: 42.7 µM; TGI [48]: 33.2 µM; TGI [49]: 38.2 µM; TGI [50]: 30.2 µM; TGI [51]: 37.4 µM; TGI [52]: > 71 µM; TGI [53]: 36.5 µM; TGI [54]: 33.6 µM; TGI [55]: 38.5 µM; TGI [56]: 28.7 µM; TGI [57]: 43.8 µM
